Reference: patent US12310929B2, “Use of rasagiline for the treatment of restless legs syndrome” (TEVA PHARMACEUTICAL INDUSTRIES, LTD., priority 2006, dated 2025)

Key:
[1] = tested on: 6-hydroxydopamine lesioned rats; details: treated lesioned rats compared with untreated lesioned rats
Experimental: 6-hydroxydopamine is an agent that selectively disrupts or destroys catecholaminergic systems. Thus, stereotaxic bilateral 6-hydroxydopamine lesions into the nucleus of dopaminergic diencephalic spinal neurons (A11) are performed to effect behavior consistent, although not specific, with what would be expected in a rat model of RLS. (Ondo W. G. et al., Clinical Correlates of 6-Hydroxydopamine Injections into A11 Dopaminergic Neurons in Rats: A Possible Model for Restless Leg Syndrome, Mov. Disord., 2000, 15(1):154-8)

RLS = details: treatment of RLS; cited from earlier work

| SMILES | number of standing episodes [1] | total standing time [1] | quality of sleep, frequency of waking up, periodic leg movement during sleep (RLS) | soporiferous latency (RLS) |
| --- | --- | --- | --- | --- |
| C#CCN[C@@H]1CCc2ccccc21.CS(=O)(=O)O [R(+)PAI mesylate, R(+)-N-propargyl-1-aminoindan mesylate] | fewer standing episodes | less total standing time |  |  |
| Clc1cccc(Cl)c1N=C1NCCN1 [Clonidine] |  |  | no effect | reduced |
